Measured values from patent US12239654B2, “Compounds and methods for treating neurological and cardiovascular conditions” (Astrocyte Pharmaceuticals, Inc., priority 2016, dated 2025).
Where two headings read alike, the source gives them in different places. Marks after values point to notes of the source that are not given here.

How the values were obtained:
[1] = system: mice subjected to stroke; experiment: Photothrombosis-induced stroke in mice, TTC-stained brain infarction size; format: in vivo, C57Bl/6 mice; settings: 24 hours
Protocol: Photothrombosis-induced Stroke: Photothrombosis was performed as described in Zheng et al 2010 (PloS One 5 (12): e14401). In brief, Rose Bengal is a fluorescent dye that when injected into the vasculature and excited, generates singlet oxygen that damages the endothelial wall and induces a local thrombosis (clot). Using this technique, mice were given a 0.1 mL tail-vein injection of sterilized Rose Bengal (RB, Sigma, U.S.A.) in artificial cerebral spinal fluid (aCSF). The RB concentration was 20 mg/mL. A cortical region was centered in the imaging field and illuminated with a green laser (543 nm, 5 mW) using a 0.8-NA 40× water-immersion objective (Nikon, Tokyo). The clot formation was monitored in real time until the targeted vessel or downstream capillaries were firmly occluded. Stable clots were subsequently identified by a non-fluorescent vessel segmentation ending with highly fluorescent regions. […] Treatments, MRS4322 (0.16 mg/kg; 0.5 μmol/kg) or MRS2365 (0.24 mg/kg; 0.5 μmol/kg) were introduced via intraperitoneal injections (i.p.). For experiments with A3 receptor antagonist MRS1523, mice were administered intraperitoneal injections (2 mg/kg) at the 0 and 2 hour timepoints to ensure receptor antagonism throughout the course of the study.
Animals and Photothrombosis-induced Stroke: Stroke was performed as described in Zheng et al 2010 (PloS One 5 (12): e14401). Female C57Bl/6 mice (4-6 months) were used in this study. From the methods of this manuscript: Mice were anesthetized at 3% isoflurane with 100% oxygen and subsequently maintained at 1% isoflurane through a nosecone. Depth of anesthesia was monitored and regulated according to vital signs, pinch withdrawal and eye blinks. Body temperature was maintained at 37° C. by a feedback-controlled heating pad (Gaymar T/Pump). Vital signs including oxygen saturation, respiratory rate, and heart rate were continuously monitored by using the MouseOx system (STARR Life Sciences). The hair on each mouse's head was trimmed and a small incision was made in the scalp to expose the skull. A custom-made stainless steel plate was glued to the skull with VetBond Tissue Adhesive (3M, St Paul, MN). A cranial thinned-skull imaging window was created over the right primary somatosensory cortex (˜1.5 mm posterior to Bregma and 2 mm lateral from midline) depending on the experiment. In brief, a large region of the skull was first thinned with the electric drill and then further thinned with a surgical blade. The final thickness of the thinned skull was approximately 50 μm. After the cranial imaging window was created, mice were transferred to microscope stage and used for photothrombosis or imaging experiments. For the repeat imaging experiments, the plate was carefully detached from the skull and the scalp was sutured (Ethicon 6-0 sild suture). After each experiment, the mice were either returned to cages until the next timepoint or sacrificed. All procedures were approved by the Institutional Animal Care and Use Committee (IACUC) at University of Texas Health Science Center at San Antonio. Thirty minutes following stroke or sham (uninjured), mice were treated with either vehicle (saline) or drugs (MRS4322, MRS2365, MRS5698 or Cl-IBMECA).
Post photothrombotic infarction evaluation. The size of cerebral infarcts was evaluated using 2,3,5-Triphenyltetrazolium chloride (TTC) staining as described in Zheng et al 2010 (PloS One 5 (12): e14401). In brief, RB-induced lesions in brain slices were stained with TTC. TTC is a colorless dye that stains healthy brain tissue red when reduced by the mitochondrial enzyme succinyl dehydrogenase (Bederson J B et al., 1986). The absence of staining in necrotic tissue is then used to define the area of a brain infarction. Mice were sacrificed by cervical dislocation, their brains removed and then placed in ice cold HBSS for 3 minutes. The brain was subsequently transferred to a brain mold (KOPF), sliced into 1 mm sections and immersed in 2% TTC (5 min) at 37° C. […]

[2] = Plasma binding determination by plasma ultrafiltration, mouse; format: in vitro ADME; settings: mouse plasma, 1 μM
Protocol: (§1) Animals and Tissue Preparation: Plasma from male CD-1 mice was obtained from BioreclamationIVT (Westbury, NY) and stored at −80° C. until use. Male CD-1 mouse brains were obtained from BioreclamationIVT (Westbury, NY).
Plasma ultrafiltrate blank samples were prepared by thawing frozen plasma and then pre-warming plasma in a humidified 5% CO2 chamber at 37° C. for 60 minutes. Aliquots of 800 μL were transferred to Centrifree Centrifugal Filters (Ultracel regenerated cellulose (NMWL 30,000 amu) Lot R5JA31736) and centrifuged at 2900 RPM at 37° C. for 10 minutes; plasma water filtrates were collected and used in preparation of standards, blanks and QC standards.
Plasma samples were pre-warmed for 60 minutes in a humidified, 5% CO2 incubator maintained at 37° C. […] Spiked plasma samples were incubated on a rotary mixer in a humidified 5% CO2 chamber at 37° C. for a minimum of 60 minutes. After 60 minutes, three 800 μL aliquots of each sample were added to Centrifree centrifugal filters. The filters were subjected to centrifugation at 2900 rpm for 10 minutes at 37° C. Three 100 μL aliquots of residual plasma were collected along with ultrafiltrate for bioanalysis.
(§2) Plasma and brain concentrations of MRS4322 and MRS5698 in spiked plasma, brain homogenates and associated ultrafiltrates were determined by LC-MS/MS utilizing tolbutamide as an internal standard. […] The following tables outline the LC and MS/MS conditions employed (Tables 7 and 8).
(§3) For each tissue matrix, standard curves were created and LLOQ/ULOQ concentrations determined. The calibration range for the MRS4322 and MRS5698 plasma concentration standard curves was 400-1200 nM. The calibration range for MRS4322 and MRS5698 plasma ultrafiltrate standard curves was 100-1200 nM. The calibration range for MRS4322 brain homogenate and brain homogenate ultrafiltrate standard curves were 400-1200 nM and 100-1200 nM, respectively. The calibration range for MRS5698 brain homogenate and brain homogenate ultrafiltrate standard curves were 400-1200 nM and 1-500 nM, respectively.

[3] = Brain binding determination by brain homogenate ultrafiltration, mouse; format: in vitro ADME; settings: for fraction unbound at 60 min, 1 μM: male, CD-1, mouse, brain homogenate, pH 7.4, mouse brain homogenate
Protocol: as §1
Brains were weighed and homogenized with 1:9 phosphate-buffered saline, pH 7.4 using an Omni tissue homogenizer. Brains from four mice were homogenized, pooled and mixed to form one sample.
Pooled homogenized brains were pre-warmed for 60 minutes in a humidified, 5% CO2 incubator maintained at 37° C. […] Spiked pooled brain homogenates were placed on a Nutator mixer in a humidified, 5% CO2 incubator at 37° C. for 60 minutes. After 60 minutes, three 800 μL aliquots of each sample were added to Centrifree centrifugal filters. The filters were subjected to centrifugation at 2900 rpm for 10 minutes at 37° C. Aliquots of residual brain homogenate and ultrafiltrate were collected for bioanalysis.
as §2, §3

Structure (SMILES) | size of the brain infarction (TTC staining) ([1]; photothrombotic stroke mice, 100 ul of 100 uM ip within 30 minutes of clot formation, vs vehicle) | concentrations in the plasma ultrafiltrate [2] | fraction unbound at 60 min, 1 μM ([3]; 37° C., ultrafiltration, read-out: % Bound Mean (converted)) | fraction unbound at 60 min, 1 μM ([3]; 37° C., ultrafiltration, read-out: Fraction Unbound Mean) | concentrations in the brain homogenate ultrafiltrate ([3]; mouse brain homogenate, 1 μM) | % Bound Mean ([3]; mouse brain homogenate, 1 μM, 37° C., ultrafiltration) | size of brain infarctions in mice pretreated with A3 receptor antagonist MRS1523 ([1]; MRS1523 2 mg/kg ip at 0 and 2 hour, treatment within 30 minutes of clot formation)
Nc1nc(Cl)nc2c1ncn2[C@H]1[C@H](O)[C@H](O)[C@]2(CO)C[C@H]12 [MRS1873] | significantly reduced |  |  |  |  |  | 
CNC(=O)[C@@]12C[C@@H]1[C@@H](n1cnc3c(NCc4cccc(Cl)c4)nc(C#Cc4ccc(F)c(F)c4)nc31)[C@H](O)[C@@H]2O [MRS5698] |  | not detected | 0.0001 | < 0.000122 | not detected | >99.99* % | not reduced
